Results from paper PMC4539421, “A Novel Microbisporicin Producer Identified by Early Dereplication during Lantibiotic Screening” (BioMed Research International, 2015).
No end group written: not given here.

Legend:
L3751 S. aureus L-form = assay: MIC by broth microdilution, S. aureus L-form; format: cell-based, Staphylococcus aureus; conditions: broth microdilution assay [27]; L-form cells
Experimental: Staphylococcus aureus 209 ATCC 6538P (L100) were purchased from the American Type Culture Collection (ATCC; Manassas VA). L-form cells (L3751) were prepared from L100 by exposure to 100 U of penicillin in Enterococcal Brain Heart Infusion/S (EBH/S) supplemented with 5% NaCl, 5% sucrose, and 10% horse serum as previously described. L-forms were then cultured on similarly supplemented brain heart infusion agar containing no antibiotic. S. aureus Smith ATCC19636 (L819), Streptococcus pyogenes C203 ATCC12384 (L49), and other clinical isolates (S. aureus L1400, Enterococcus faecalis L559, Enterococcus faecalis Van A L560, Escherichia coli SKF12140 L47, and Candida albicans SKF2270 L145) were maintained in the Fondazione Istituto Insubrico Ricerca per la Vita (F.I.I.R.V.) culture collection (L collection) at Gerenzano, Italy.
(§1) Broth and mycelium screening extracts from the F.I.I.R.V. collection of Actinoallomurus strains isolated according as above were screened in liquid microplate assays for their antimicrobial activity on S. aureus 209 ATCC 6538P (L100) and to its L-form cells (L3751), as described in detail in [7]. In brief, S. aureus 209 ATCC 6538P (L100) and its L-form cells (L3751) were maintained at −80°C in Nutrient Broth (Difco) to which 20% (v/v) glycerol was added. EBH/S supplemented with 5% (v/v) horse serum was used as medium. For the wild-type inoculum, 10 μL of extracts previously dissolved in DMSO : H2O 1 : 9 (v/v) were added to 1 × 10^5 CFU/mL in 90 μL of culture broth. For L-form cells, aliquots of liquid cultures grown overnight in EBHI/S to O.D.620 nm = 0.2 were used as inoculum. Incubation time was 24 h at 35°C in air, and then growth inhibition was measured at O.D.620 nm. Reference actagardine, planosporicin, microbisporicin, mersacidin, and nisin standards were used and MIC levels were determined by broth microdilution assay as recommended by the National Committee for Clinical Laboratory Standards. To identify β-lactam producers, antimicrobial activity versus S. aureus 209 ATCC 6538P (L100) was measured in a liquid microplate assay after adding the following cocktail of β-lactamases: Penicillase Type I from Bacillus cereus (Sigma P0389), 0.001 U/mL; Penicillase Type II from Bacillus cereus (Sigma P6018), 0.002 U/mL; Penicillase type III from Enterobacter cloacae (Sigma P4399), 0.0025 U/mL; and Penicillase type IV from Enterobacter cloacae (Sigma P4524), 0.5 U/mL. To identify glycopeptide producers, antimicrobial activity versus S. aureus 209 ATCC 6538P (L100) was measured in a liquid microplate assay after adding 2 mg/mL of Ac-Lys-D-alanyl-D-alanine (Chem-Impex International Inc., IL).
(§2) Antimicrobial activity was determined by broth microdilution assay according to standard guidelines. […]

L145 C. albicans = format: cell-based, Candida albicans; conditions: broth microdilution assay [27]
Experimental: as §1, §2

L47 E. coli = format: cell-based, Escherichia coli; conditions: broth microdilution assay [27]
Experimental: as §1, §2

L1400 S. aureus MRSA = assay: MIC by broth microdilution, MRSA; format: cell-based, Staphylococcus aureus; conditions: broth microdilution assay [27]; MRSA clinical isolate
Experimental: as §1
(§3) Antimicrobial activity was determined by broth microdilution assay according to standard guidelines. The growth media utilized to determine the MIC were cation-adjusted Difco Mueller Hinton Broth (MHB) for Staphylococci, Enterococci, and E. coli, Todd Hewitt Broth (THB) for Streptococci, and RPMI-1640 medium (RPMI) for C. albicans. Typically, a twofold serial dilution of the test compound was performed in a sterile 96-well microplate inoculated with 10^4 CFU/mL of the test strain in the appropriate medium. The microplate was then incubated for 18–24 h at 35°C.

L100 S. aureus ATCC6538P = assay: MIC by broth microdilution, S. aureus; format: cell-based, Staphylococcus aureus; conditions: broth microdilution assay [27]
Experimental: as §1, §3

L49 S. pyogenes = assay: MIC by broth microdilution, S. pyogenes; format: cell-based, Streptococcus pyogenes; conditions: broth microdilution assay [27]
Experimental: as §1, §2

S. aureus L-form L3751 = assay: Bioautography of HPLC fractions, S. aureus L-form; format: cell-based, Staphylococcus aureus; conditions: 1 mL HPLC fractions dried, resuspended in 100 μL 10% DMSO, 10 μL tested
Experimental: (§4) For bioautography, fractions (1 mL, eluting at 1 mL/min) from the HPLC column were collected, dried, and resuspended in 100 μL aqueous solution at 10% (v/v) DMSO. 10 μL were tested for antimicrobial activity. UV and mass spectra of molecules present in the active fractions were compared with those collected in the ABL database, which contains data on approximately 30,000 microbial metabolites collected from literature and patents since 1950 [20, 28], and in the commercially available Antibase (http://wwwuser.gwdg.de/~hlaatsc/antibase.htm).

S. aureus = assay: Bioautography of HPLC fractions, S. aureus; format: cell-based, Staphylococcus aureus; conditions: 1 mL HPLC fractions dried, resuspended in 100 μL 10% DMSO, 10 μL tested
Experimental: as §4

| Substance | MIC (L3751 S. aureus L-form) [µg/mL] | MIC (L145 C. albicans) [µg/mL] | MIC (L47 E. coli) [µg/mL] | MIC (L1400 S. aureus MRSA) [µg/mL] | MIC (L100 S. aureus ATCC6538P) [µg/mL] | MIC (L49 S. pyogenes) [µg/mL] | Growth inhibition by HPLC fraction (bioautography) (S. aureus L-form L3751) | Growth inhibition by HPLC fraction (bioautography) (S. aureus) |
| --- | --- | --- | --- | --- | --- | --- | --- | --- |
| Actagardine | >128 | >128 | >128 | 16 | 32 | 2 | – | – |
| Mersacidin (CTFTLPGGGGVCTLTSECIC; also: lantibiotic mersacidin, thioether rings not placed; UniProt P43683 49-68, looked up) [lantibiotic standard] | 64 | – | – | 8 | 4 | – | – | – |
| Microbisporicin | >128 | >128 | >128 | ≤0.13 | ≤0.13 | <1 | – | – |
| Microbisporicin A2 | – | – | – | – | – | – | but not its L-form | inhibits the microbial growth |
| Planosporicin | >128 | >128 | >128 | 16 | 2 | <1 | – | – |
